{"source": "paper PMC8956739", "about": "“A synthetic lipopeptide targeting top-priority multidrug-resistant Gram-negative pathogens” (Nature Communications, 2022)", "key": {"A. baumannii AB5075 [1]": {"test_system": "A. baumannii AB5075", "experiment": "Transcriptomic analysis (RNA-Seq) of bacteria", "type": "cell-based, Acinetobacter baumannii", "conditions": "for log2FC, gene ABUW_RS01945 (acyl-CoA thioesterase II) / log2FC, gene ABUW_RS02545 (acyl-CoA thioesterase) / log2FC, gene ABUW_RS05045 (acyl-CoA thioesterase) / log2FC, gene ABUW_RS17575 (acyl-CoA thioesterase): pathway Fatty Acid and Lipid Degradation", "procedure": "Mid-log phase A. baumannii AB5075 (~10^8 CFU/mL) in CaMHB was treated with colistin (2 and 8 μg/mL), F287, F319 or F365 (equimolar concentration to colistin) for 1 and 4 h. Total RNA was extracted using TRIzol Reagent (Invitrogen, USA) and RNeasy Mini Kit (Qiagen, Germany). Quality check of RNA samples was conducted with NanoDrop (Thermo Fisher Scientific, USA) and Agilent 2100 Bioanalyzer (Agilent Technologies, USA) for sequencing (150 bp paired-end) at Genewiz (Shanghai, China). Raw reads were aligned to A. baumannii AB5075 genome (GCF_000963815, https://www.ncbi.nlm.nih.gov/assembly/GCF_000963815.1/) using subread-aligner (subread 2.0.1) and summarized by featureCounts (subread 2.0.1). Principal component analysis (PCA) was conducted with mixOmics 6.14.1 in R. Differentially expressed genes were determined using limma 3.46.0 with a combination of fold change ≥ 2 and false discovery rate (FDR, by Benjamini–Hochberg algorithm) adjusted P-value ≤ 0.05 (n = 3). Enrichment analysis of gene differential expression in AB5075 was conducted using BioCyc (A. baumannii AB5075, version 25.5). UpSetR 1.4.0, ComplexHeatmap 2.6.2 and circlize 0.4.13 were used for data visualization. Raw data were deposited in Short Reads Archive (SRA) database under accession numbers SRR15235669-SRR15235725."}, "A. baumannii AB5075 [2]": {"test_system": "A. baumannii AB5075", "experiment": "In vitro passaging, emergence of resistance", "type": "cell-based, Acinetobacter baumannii", "procedure": "Log-phase cultures (OD600 = 0.5, ~10^8 CFU/mL) of A. baumannii AB5075 were inoculated (1:10, v/v) in 200 μL fresh CaMHB (cation-adjusted Mueller–Hinton broth) containing 2, 8 and 16 μg/mL polymyxin B, colistin, F287, and F365 in a 96-well microplate with 4 biological replicates. The cultures were incubated at 37 °C for 12 h before the next dilution (1:10, v/v) with fresh CaMHB. Successive subculturing was conducted for 7 days."}, "[3]": {"conditions": "L vs Cont, 4h, RNA-Seq A. baumannii AB5075"}, "[4]": {"conditions": "L, 4h vs 1h, RNA-Seq A. baumannii AB5075"}}, "note": "“And” between values parts separate entries of the source, which are not always exact repeats. Identical values can stand only once. Residues, ends and D or L forms follow the SMILES beside them."}
{"smiles": "CC[C@@H]1NC(=O)[C@@H](CC(C)C)NC(=O)[C@H](CCN)NC(=O)[C@@H](NC(=O)[C@H](CN)NC(=O)[C@@H](NC(=O)[C@H](CCN)NC(=O)c2ccc(Cl)cc2Cl)[C@@H](C)O)CCNC(=O)[C@H]([C@@H](C)O)NC(=O)[C@H](CCN)NC(=O)[C@H](CCN)NC1=O", "note": "[Lipopeptide F365] (HELM PEPTIDE1{[O=C(c1ccc(Cl)cc1Cl)[*:2]].[Dab].T.[NC[C@H](N[*:1])C(=O)[*:2]].[Dab].[Dab].[dL].[Abu].[Dab].[Dab].T}$PEPTIDE1,PEPTIDE1,5:R3-11:R2$$$V2.0)", "values": [{"measurement": "log2FC, gene ABUW_RS01945 (acyl-CoA thioesterase II)", "setting": "A. baumannii AB5075 [1]; L vs Cont, 1h", "value": 0.4901}, {"measurement": "log2FC, gene ABUW_RS02545 (acyl-CoA thioesterase)", "setting": "A. baumannii AB5075 [1]; L vs Cont, 1h", "value": -0.0862}, {"measurement": "log2FC, gene ABUW_RS05045 (acyl-CoA thioesterase)", "setting": "A. baumannii AB5075 [1]; L vs Cont, 1h", "value": -0.2681}, {"measurement": "log2FC, gene ABUW_RS17575 (acyl-CoA thioesterase)", "setting": "A. baumannii AB5075 [1]; L vs Cont, 1h", "value": -0.08172}, {"measurement": "logFC (Differential gene expression for all genes), Geneid ABUW_RS00005", "setting": "A. baumannii AB5075 [1]; [3]", "value": 0.1571}, {"measurement": "logFC (Differential gene expression for all genes), Geneid ABUW_RS00020", "setting": "A. baumannii AB5075 [1]; [3]", "value": -0.1135}, {"measurement": "logFC (Fold change), gene ABUW_RS00010", "setting": "A. baumannii AB5075 [1]; [3]", "value": 0.2996}, {"measurement": "logFC (Fold change), gene ABUW_RS00030", "setting": "A. baumannii AB5075 [1]; [3]", "value": 0.4017}, {"measurement": "logFC (Fold change), gene ABUW_RS00035", "setting": "A. baumannii AB5075 [1]; [3]", "value": 0.1258}, {"measurement": "logFC (Fold change), gene recF (ABUW_RS00015)", "setting": "A. baumannii AB5075 [1]; [3]", "value": -0.3068}, {"measurement": "log2FC, gene ABUW_RS01945 (acyl-CoA thioesterase II)", "setting": "A. baumannii AB5075 [1]; L vs Cont, 4h", "value": -0.2225}, {"measurement": "log2FC, gene ABUW_RS02545 (acyl-CoA thioesterase)", "setting": "A. baumannii AB5075 [1]; L vs Cont, 4h", "value": -0.9002}, {"measurement": "log2FC, gene ABUW_RS05045 (acyl-CoA thioesterase)", "setting": "A. baumannii AB5075 [1]; L vs Cont, 4h", "value": 0.02763}, {"measurement": "log2FC, gene ABUW_RS17575 (acyl-CoA thioesterase)", "setting": "A. baumannii AB5075 [1]; L vs Cont, 4h", "value": -0.0188}, {"measurement": "4h_1h logFC (Differential gene expression for all genes), Geneid ABUW_RS00005", "setting": "A. baumannii AB5075 [1]; [4]", "value": -0.03686}, {"measurement": "4h_1h logFC (Differential gene expression for all genes), Geneid ABUW_RS00010", "setting": "A. baumannii AB5075 [1]; [4]", "value": -0.6141}, {"measurement": "4h_1h logFC (Differential gene expression for all genes), Geneid ABUW_RS00015", "setting": "A. baumannii AB5075 [1]; [4]", "value": -0.239}, {"measurement": "4h_1h logFC (Differential gene expression for all genes), Geneid ABUW_RS00020", "setting": "A. baumannii AB5075 [1]; [4]", "value": -0.06215}, {"measurement": "OD600", "setting": "A. baumannii AB5075 [2]; 8 ug/mL, time 0 h, passage 0, replicates rep1-rep4, raw OD600 (blank OD600 0.125333)", "value": "0.207 and 0.177 and 0.165 and 0.164"}, {"measurement": "OD600", "setting": "A. baumannii AB5075 [2]; 8 ug/mL, time 12 h, passage 1, replicates rep1-rep4, raw OD600 (blank OD600 0.114667)", "value": "0.193 and 0.169 and 0.147 and 0.152"}, {"measurement": "OD600", "setting": "A. baumannii AB5075 [2]; 8 ug/mL, time 24 h, passage 2, replicates rep1-rep4, raw OD600 (blank OD600 0.0956667)", "value": "0.091 and 0.092 and 0.09"}, {"measurement": "OD600", "setting": "A. baumannii AB5075 [2]; 8 ug/mL, time 36 h, passage 3, replicates rep1-rep4, raw OD600 (blank OD600 0.088)", "value": "0.091 and 0.09 and 0.092"}, {"measurement": "OD600", "setting": "A. baumannii AB5075 [2]; 8 ug/mL, time 48 h, passage 4, replicates rep1-rep4, raw OD600 (blank OD600 0.104667)", "value": "0.091 and 0.094 and 0.101"}, {"measurement": "OD600", "setting": "A. baumannii AB5075 [2]; 8 ug/mL, time 60 h, passage 5, replicates rep1-rep4, raw OD600 (blank OD600 0.122333)", "value": "0.112 and 0.116 and 0.106 and 0.123"}, {"measurement": "OD600", "setting": "A. baumannii AB5075 [2]; 8 ug/mL, time 72 h, passage 6, replicates rep1-rep4, raw OD600 (blank OD600 0.095)", "value": "0.092 and 0.085 and 0.096"}, {"measurement": "OD600", "setting": "A. baumannii AB5075 [2]; 8 ug/mL, time 84 h, passage 7, replicates rep1-rep4, raw OD600 (blank OD600 0.091)", "value": "0.089 and 0.091 and 0.092 and 0.093"}, {"measurement": "OD600", "setting": "A. baumannii AB5075 [2]; 8 ug/mL, time 96 h, passage 8, replicates rep1-rep4, raw OD600 (blank OD600 0.0953333)", "value": "0.09 and 0.092 and 0.097 and 0.093"}, {"measurement": "OD600", "setting": "A. baumannii AB5075 [2]; 8 ug/mL, time 108 h, passage 9, replicates rep1-rep4, raw OD600 (blank OD600 0.100667)", "value": "0.111 and 0.118 and 0.121 and 0.105"}, {"measurement": "OD600", "setting": "A. baumannii AB5075 [2]; 8 ug/mL, time 120 h, passage 10, replicates rep1-rep4, raw OD600 (blank OD600 0.0983333)", "value": "0.118 and 0.132 and 0.121 and 0.13"}, {"measurement": "OD600", "setting": "A. baumannii AB5075 [2]; 8 ug/mL, time 132 h, passage 11, replicates rep1-rep4, raw OD600 (blank OD600 0.0843333)", "value": "0.12 and 0.124 and 0.123 and 0.117"}, {"measurement": "OD600", "setting": "A. baumannii AB5075 [2]; 8 ug/mL, time 144 h, passage 12, replicates rep1-rep4, raw OD600 (blank OD600 0.091)", "value": "0.126 and 0.122 and 0.125 and 0.13"}, {"measurement": "OD600", "setting": "A. baumannii AB5075 [2]; 8 ug/mL, time 156 h, passage 13, replicates rep1-rep4, raw OD600 (blank OD600 0.129)", "value": "0.117 and 0.116 and 0.13 and 0.112"}, {"measurement": "OD600", "setting": "A. baumannii AB5075 [2]; 8 ug/mL, time 168 h, passage 14, replicates rep1-rep4, raw OD600 (blank OD600 0.101)", "value": "0.095 and 0.092"}, {"measurement": "time to emergence of resistance", "setting": "A. baumannii AB5075 [2]; 4× MIC, 7-day passaging", "value": "≤ 3", "unit": "days"}, {"measurement": "growth over 7 days", "setting": "A. baumannii AB5075 [2]; 32× MIC", "value": "No growth"}, {"measurement": "OD600", "setting": "A. baumannii AB5075 [2]; in vitro passaging, concentration 8 ug/mL, time 168 h, passage 14, individual replicates rep1-rep4, not blank-subtracted (blank OD600 0.101)", "value": "0.093 and 0.094"}]}
